“And” between values parts separate entries of the source, which are not always exact repeats. Identical values can stand only once. Like-named read-outs stand apart in the source and are kept apart here.
How the values were obtained:
[1] = tested on: high-risk neuroblastoma patient-derived xenograft (PDX) mouse models; experiment: Pre-clinical efficacy study in 11 neuroblastoma PDX mouse models (grouped analysis); format: in vivo
Experimental: (§1) Patient demographics and genetic characteristics are listed in (Supplementary Tables 1, 2)[17]. The maximum tolerated dose (MTD) was determined to be 36 MBq/kg administered by intra-peritoneal injection twice weekly for a total of 4 dose fractions and this fractionated regimen was used in all studies (Supplementary Fig. 1)[18],[19]. […] Nine of 11 PDX models were MYCN amplified (Fig. 1b), which is a hallmark of high-risk neuroblastoma. Tumor response was measured as the maximum percent decrease in tumor volume after treatment and event-free survival (EFS) was measured by the area over the curve method with tumor events pre-defined by tumor growth exceeding 2 cm[3],[18].
(§2) The use of 2 mice per arm was based on the previously reported statistical analysis. PDX tumors were implanted into the right flank of 5 to 6-weeks old female mice weighing about 20–25 grams. […] Two additional dose levels of 12, and 24 MBq/kg/fraction were assessed in a subset of models and were administered as stated above. In two models treated at the 24 MBq/kg/fraction dose level we re-challenged tumor response at the time of tumor progression with an additional 4 dose fractions at 24 MBq/kg/fraction given twice weekly. Doses were prepared in 500 µL total volume. An equal volume of saline was used for the vehicle group. Tumors were measured using a digital caliper at the initiation of the study and two times per week during the treatment period. Tumor volumes were calculated as volume = ([…]∗0.5236)/1000. Weights were obtained twice weekly and mice were monitored daily for signs of toxicity. […] Tumor response was assessed by best response defined as greatest reduction in tumor volume following the last dose and is presented as percent change in tumor volume. Event-free survival was determined by area over the curve method that calculates the time to tumor event, which was defined as tumors reaching or exceeding a size ≥ 2 cm^3.
(§3) Animal studies were performed in female mice due to the lack of sex-related differences for [^211At]PTT tolerability from initial dose response studies performed in female and male mice. Female mice were chosen due to their underlying behavior towards other study subjects that reduced nonstudy-related causes for decreased wellness. Pre-clinical efficacy studies were performed through “single mouse testing” to more closely recapitulate a clinical trial. […] Number size for treatment groups was determined by model tumor growth reproducibility, which was previously shown to have less than 5% normal variation with at least two animals. Statistical tests for tumor response and event-free survival (EFS) were performed as a grouped analysis that included all tumor models treated at each respective dose level (n = 2 per model per dose level). Statistical differences between treatment groups for tumor response was performed by paired-model T-test that compared reduction in tumor volume for the 36 MBq/kg dose level vs. 24 MBq/kg or 12 MBq/kg. Event free survival was measured by area over the curve method to quantify time to event, which was set as tumor growth exceeding 2 cm[3],[19]. Differences in EFS were tested across all treated models for each respective dose level, and against untreated controls, by paired-model ANOVA analysis. Associations of drug target expression and response were performed by linear regression analysis of EFS and PARP1 mRNA expression. Genetic signatures were visually presented as a function of EFS and no statistical tests were applied. Blood and marrow toxicity studies were performed with n = 5 sample sizes and powered to detect >20% differences between untreated controls and treated animals. Results were tested for significance by one-way ANOVA comparison from untreated controls. Marrow colony formation assays were performed in replicates of 2 for each mouse subject, dependent on marrow isolation, and all replicates are included in final analyses. […]

NB-EBC1x = experiment: Pre-clinical efficacy study, NB-EBC1x PDX; format: in vivo, mouse; settings: for EFS by AOC method / Tumor response (% growth from study initiation at ~ 200 mm3): single mouse; for Tumor Volume: NBEBC1 tumor re-challenge (24 MBq/kg/fraction x 4)
Experimental: as §1, §2, §3

[2] = format: in vivo, CB57 SCID mice
Experimental: Toxicity studies were done in nontumor bearing CB-17 SCID mice (Taconic Biosciences). […] Each arm had n = 10 mice (5 male, 5 female mice). […] The vehicle group received an equal volume of saline (placebo). Weights were obtained twice weekly and mice were monitored daily for signs of toxicity. […] On target hematological and marrow toxicity which was evaluated by complete blood counts and marrow colony formation assay. An additional study was performed under identical conditions to evaluate additive dose effects. […] Each treatment group was composed of equal numbers of male and female mice to rule out gender-specific effects (n = 4 per treatment group per time point). Mice were followed for signs of acute toxicity for 2 weeks and 4 weeks before euthanasia. An additional group (n = 4) treated at 36 MBq/kg was euthanized after 72 h to assess early signs of toxicity by colony formation assays. This time course was chosen to best capture the nadir of bone marrow suppression. After euthanasia, blood was collected and femurs were dissected and processed for histopathology and bone marrow evaluation.
Su p p lemen t ary Fig u res
Supplementary Fi g u re 1 : Maximum tolerated dose finding studies for [211At]PT T adm inistered as 4
dose fractions given twice weekly in male and female CB57 SCID mice (n=3 per sex per dose level).
(1 picture or pasted object on this page, not shown here)

COG-N-421x = experiment: Pre-clinical efficacy study, COG-N-421x PDX; format: in vivo; settings: 36 MBq/kg/fraction x 4 fractions, single mouse
Experimental: as §1
(§4) The use of 2 mice per arm was based on the previously reported statistical analysis. […] Two additional dose levels of 12, and 24 MBq/kg/fraction were assessed in a subset of models and were administered as stated above. […] Tumors were measured using a digital caliper at the initiation of the study and two times per week during the treatment period. Tumor volumes were calculated as volume = ((diameter^1/2 + diameter^2/2)^3∗0.5236)/1000. Weights were obtained twice weekly and mice were monitored daily for signs of toxicity. […] Tumor response was assessed by best response defined as greatest reduction in tumor volume following the last dose and is presented as percent change in tumor volume. […]

NB-1643x = experiment: Pre-clinical efficacy study, NB-1643x PDX; format: in vivo; settings: 36 MBq/kg/fraction x 4 fractions, single mouse
Experimental: as §1, §4

[3] = NB-EBC1x, 24 MBq/kg/fraction x 4 fractions
[4] = NB-EBC1x, 36 MBq/kg/fraction x 4 fractions

## O=C1NCCn2c(-c3ccc([211At])cc3)nc3cccc1c32 [[^211At]PTT, Astatine-211-parthanatine]
[1]; 12 MBq/kg dose level
  median EFS: 23 days
[1]; 12 MBq/kg dose level (COG-N-415x n = 1, COG-N-453x n = 1)
  mouse tumors showing progressing disease after treatment: two
[1]; 12 MBq/kg, n = 8, 4 PDX models
  average decrease in tumor volume: 27.15 ± 42.2%
[1]; 24 MBq/kg dose level
  median EFS: 46 days
[1]; 24 MBq/kg re-challenge, COG-N-426x-Felix and NB-EBC1x, n = 2
  reduction in tumor volume after therapy re-challenge: 100%
[1]; 24 MBq/kg, n = 14, 7 PDX models
  average decrease in tumor volume: 92.6 ± 8.1%
[1]; 36 MBq/kg (MTD), n = 22, 11 PDX models
  average decrease in tumor volume: 98.4 ± 3.3%
[1]; 36 MBq/kg/fraction x4 (MTD)
  median event free survival (EFS): 74 days
[1]; MTD, 6/20 mice, >95 days (b1), >90 days
  mice with no measurable tumor/disease at end of study: 30%
[1]; MTD, 18 of 22 tumors
  complete tumor response, share of tumors: 81.8%
NB-EBC1x; NB-EBC1x, 24 MBq/kg/fraction x 4, re-challenged mouse n = 1
  EFS1 (initial treatment): 45
NB-EBC1x; [3]
  EFS by AOC method: 58.4 days
  Tumor response (% growth from study initiation at ~ 200 mm3): -100%
NB-EBC1x; [4]
  EFS by AOC method: 90.4 days and 97.6 days and 90.485 days and 97.6925 days
  Tumor response (% growth from study initiation at ~ 200 mm3): -100%
NB-EBC1x; NB-EBC1x, re-challenge 24 MBq/kg/fraction x 4 at tumor progression, progressing disease
  EFS2 (re-challenge treatment): 47
NB-EBC1x; week 0
  Tumor Volume: 0.17 cm3
NB-EBC1x; week 0.6
  Tumor Volume: 0.28 cm3
NB-EBC1x; week 1.1
  Tumor Volume: 0.24 cm3
NB-EBC1x; week 1.6
  Tumor Volume: 0.04 cm3
NB-EBC1x; week 2
  Tumor Volume: 0.01 cm3
NB-EBC1x; week 2.6
  Tumor Volume: 0 cm3
NB-EBC1x; week 3.1
  Tumor Volume: 0 cm3
NB-EBC1x; week 3.6
  Tumor Volume: 0 cm3
NB-EBC1x; week 4.1
  Tumor Volume: 0 cm3
NB-EBC1x; week 4.6
  Tumor Volume: 0 cm3
NB-EBC1x; week 5
  Tumor Volume: 0.05 cm3
NB-EBC1x; week 5.6
  Tumor Volume: 0.32 cm3
NB-EBC1x; week 6
  Tumor Volume: 0.41 cm3
NB-EBC1x; week 6.6
  Tumor Volume: 1.05 cm3
NB-EBC1x; week 7
  Tumor Volume: 0.73 cm3
NB-EBC1x; week 7.6
  Tumor Volume: 0.34 cm3
NB-EBC1x; week 8
  Tumor Volume: 0.16 cm3
NB-EBC1x; week 8.6
  Tumor Volume: 0.03 cm3
NB-EBC1x; week 9
  Tumor Volume: 0.07 cm3
NB-EBC1x; week 9.6
  Tumor Volume: 0.07 cm3
NB-EBC1x; week 10
  Tumor Volume: 0 cm3
NB-EBC1x; week 10.6
  Tumor Volume: 0 cm3
NB-EBC1x; week 11
  Tumor Volume: 0 cm3
NB-EBC1x; week 11.6
  Tumor Volume: 0 cm3
NB-EBC1x; week 12
  Tumor Volume: 0 cm3
NB-EBC1x; week 12.6
  Tumor Volume: 0.02 cm3
NB-EBC1x; week 13
  Tumor Volume: 0.06 cm3
NB-EBC1x; week 13.6
  Tumor Volume: 0.34 cm3
NB-EBC1x; week 14
  Tumor Volume: 0.98 cm3
[2]; intra-peritoneal, twice weekly, total of 4 dose fractions
  maximum tolerated dose (MTD): 36 MBq/kg
[2]; x4 fractionated regimen, SCID PDX mice
  maximum tolerated dose (MTD): 36 MBq/kg/fraction
COG-N-421x
  EFS by AOC method: 61.4391 days and 76.0056 days
  Tumor response (% growth from study initiation at ~ 200 mm3): -100%
NB-1643x
  EFS by AOC method: 90.5 days and 76.6 days and 90.5782 days and 76.6342 days
  Tumor response (% growth from study initiation at ~ 200 mm3): -95.4545% and -100%

— article PMC9671962 (Communications Biology, 2022)
